Patent US9181273B2, “Morpholine-spirocyclic piperidine amides as modulators of ion channels” (Vertex Pharmaceuticals Incorporated, priority 2011, dated 2015)

Target: human NaV subtype, like NaV 1.7 (Homo sapiens, UniProt Q15858)
Assay: E-VIPR optical membrane potential assay with electrical stimulation
Format: cell-based
Conditions: not given

Sequence of human NaV subtype, like NaV 1.7 (Q15858 whole entry): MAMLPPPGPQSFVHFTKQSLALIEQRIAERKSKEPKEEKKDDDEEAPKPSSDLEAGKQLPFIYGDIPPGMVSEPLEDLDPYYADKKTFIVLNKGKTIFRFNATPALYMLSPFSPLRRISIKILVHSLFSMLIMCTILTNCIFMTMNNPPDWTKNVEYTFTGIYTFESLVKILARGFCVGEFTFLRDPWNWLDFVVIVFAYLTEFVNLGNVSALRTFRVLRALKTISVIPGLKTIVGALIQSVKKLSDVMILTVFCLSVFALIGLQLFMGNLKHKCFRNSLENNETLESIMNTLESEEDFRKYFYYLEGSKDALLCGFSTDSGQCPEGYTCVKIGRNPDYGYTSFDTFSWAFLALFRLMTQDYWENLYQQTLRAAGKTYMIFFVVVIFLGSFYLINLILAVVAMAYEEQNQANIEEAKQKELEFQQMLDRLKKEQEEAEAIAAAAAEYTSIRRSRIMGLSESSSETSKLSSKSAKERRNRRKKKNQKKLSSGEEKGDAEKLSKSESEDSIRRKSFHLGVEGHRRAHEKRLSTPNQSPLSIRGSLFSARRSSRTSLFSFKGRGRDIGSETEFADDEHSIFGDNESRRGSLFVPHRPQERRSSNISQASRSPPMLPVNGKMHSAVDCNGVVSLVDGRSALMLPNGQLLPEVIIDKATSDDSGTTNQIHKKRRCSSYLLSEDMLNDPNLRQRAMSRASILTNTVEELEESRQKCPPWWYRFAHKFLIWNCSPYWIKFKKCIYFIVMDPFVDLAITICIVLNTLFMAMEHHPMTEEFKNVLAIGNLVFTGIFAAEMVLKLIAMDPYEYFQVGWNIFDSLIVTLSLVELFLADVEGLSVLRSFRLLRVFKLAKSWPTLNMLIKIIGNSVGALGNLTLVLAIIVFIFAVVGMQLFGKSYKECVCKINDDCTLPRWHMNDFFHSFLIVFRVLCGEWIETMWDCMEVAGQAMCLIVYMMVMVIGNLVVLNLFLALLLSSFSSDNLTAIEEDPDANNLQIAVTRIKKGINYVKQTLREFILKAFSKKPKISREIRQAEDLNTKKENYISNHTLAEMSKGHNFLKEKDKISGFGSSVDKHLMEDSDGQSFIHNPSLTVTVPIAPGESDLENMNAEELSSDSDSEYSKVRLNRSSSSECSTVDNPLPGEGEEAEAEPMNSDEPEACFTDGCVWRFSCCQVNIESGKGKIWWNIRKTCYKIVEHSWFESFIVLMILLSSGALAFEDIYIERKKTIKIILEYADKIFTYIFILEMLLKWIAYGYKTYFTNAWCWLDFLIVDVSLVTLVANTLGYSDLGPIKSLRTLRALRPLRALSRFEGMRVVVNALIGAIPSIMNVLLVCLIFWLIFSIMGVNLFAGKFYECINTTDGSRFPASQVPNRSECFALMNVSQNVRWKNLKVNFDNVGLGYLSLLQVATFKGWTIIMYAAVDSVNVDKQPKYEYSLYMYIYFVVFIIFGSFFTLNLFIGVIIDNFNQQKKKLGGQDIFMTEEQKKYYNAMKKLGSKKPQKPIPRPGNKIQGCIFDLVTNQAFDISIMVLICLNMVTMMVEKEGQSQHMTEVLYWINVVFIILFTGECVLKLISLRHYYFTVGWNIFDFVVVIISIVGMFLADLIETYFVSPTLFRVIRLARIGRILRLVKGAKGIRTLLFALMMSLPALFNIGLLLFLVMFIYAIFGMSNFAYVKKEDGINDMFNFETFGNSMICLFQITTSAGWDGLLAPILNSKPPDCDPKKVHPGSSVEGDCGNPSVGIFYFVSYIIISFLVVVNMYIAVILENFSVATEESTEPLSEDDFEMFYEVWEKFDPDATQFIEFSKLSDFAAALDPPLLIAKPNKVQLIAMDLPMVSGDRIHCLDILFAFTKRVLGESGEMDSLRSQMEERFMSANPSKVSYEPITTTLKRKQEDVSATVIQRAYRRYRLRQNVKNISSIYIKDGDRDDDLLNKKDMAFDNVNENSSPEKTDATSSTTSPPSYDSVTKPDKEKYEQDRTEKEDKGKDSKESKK

Q: With `COCC1CN(c2ncccn2)CC2(CCN(C(=O)c3ccc(C(C)(C)C)c(OC)c3)CC2)O1` (stereo not drawn) [Compound 191] as the compound, how does the IC50 read?
A: < 2000 nM

Q: How did the IC50 turn out when `Cc1cc(C(=O)N2CCC3(CC2)CN(CC(F)(F)F)CC(c2cc[nH]n2)O3)ccc1OC(C)C` (stereo not drawn) [Compound 211] was run?
A: < 2000 nM

Same assay, conditions: active against one or more sodium channels; assay and NaV subtype not specified for Table 3; read-out: IC50 Binned Activity Data

Q: For `CC(C)Oc1ccc(C(=O)N2CCC3(CC2)CN(CC(F)(F)F)CC(c2ccccc2)O3)nc1` (stereo not drawn) [Compound 177], which IC50 is on record?
A: < 2000 nM

Q: How did the IC50 turn out when `COCC1CN(CC(F)F)CC2(CCN(C(=O)c3ccc(OC(C)C)c(C)c3)CC2)O1` (stereo not drawn) [Compound 178] was run?
A: < 2000 nM

Q: `Cc1cc(C(=O)N2CCC3(CC2)CN(Cc2ccccc2)CC(C(C)(C)O)O3)ccc1OC(C)C` (stereo not drawn) [Compound 179] was tested. Which IC50 did it give?
A: > 5000 nM

Q: With `COCC1CN(c2nccs2)CC2(CCN(C(=O)c3ccc(OC(C)C)c(C)c3)CC2)O1` (stereo not drawn) [Compound 180] as the compound, how does the IC50 read?
A: < 2000 nM

Q: With `Cc1cc(C(=O)N2CCC3(CC2)CN(CC(F)(F)F)CC(Cn2cccn2)O3)ccc1OC(C)C` (stereo not drawn) [Compound 181] as the compound, how does the IC50 read?
A: > 5000 nM

Q: Which IC50 does the source give for `COCC1CN(c2ccc(OC)cc2)CC2(CCN(C(=O)c3ccc(OC(C)C)c(C)c3)CC2)O1` (stereo not drawn) [Compound 183] here?
A: < 2000 nM

Q: For `COCC1CN(CCSC)CC2(CCN(C(=O)c3ccc(OC(C)C)c(C)c3)CC2)O1` (stereo not drawn) [Compound 184], which IC50 is on record?
A: < 2000 nM

Q: Which IC50 does the source give for `CC#CCN1CC2(CCN(C(=O)c3ccc(OC(C)C)c(C)c3)CC2)OCC1(C)C` [Compound 185] here?
A: > 5000 nM

Q: Which IC50 does the source give for `COc1ccc(C(=O)N2CCC3(CC2)CN(CCC(C)C)C(=O)C(c2ccccc2)O3)cc1C(F)(F)F` (stereo not drawn) [Compound 186] here?
A: < 2000 nM

Q: `COCC1CN(c2ncc(F)cn2)CC2(CCN(C(=O)c3ccc(OC(C)C)c(C)c3)CC2)O1` (stereo not drawn) [Compound 187] was tested. Which IC50 did it give?
A: < 2000 nM

Q: `COCCN1CC(COC)OC2(CCN(C(=O)c3ccc(OC(C)C)c(C)c3)CC2)C1` (stereo not drawn) [Compound 188] was tested. Which IC50 did it give?
A: 2000 to 5000 nM

Q: `Cc1cc(C(=O)N2CCC3(CC2)CN(CC(F)(F)F)CC(c2ccccc2)O3)ccc1S(C)(=O)=O` (stereo not drawn) [Compound 189] was tested. Which IC50 did it give?
A: < 2000 nM

Q: How did the IC50 turn out when `CC(C)Oc1ccc(C(=O)N2CCC3(CC2)CN(CC(F)F)CC(c2ccccc2Cl)O3)cc1F` (stereo not drawn) [Compound 190] was run?
A: < 2000 nM

Q: Which IC50 does the source give for `CCN1CC(c2ccccc2)OC2(CCN(C(=O)c3ccc(OC(C)C)c(OC)c3)CC2)C1` (stereo not drawn) [Compound 192] here?
A: < 2000 nM

Q: Which IC50 does the source give for `COCC1CN(CC(=O)C(C)(C)C)CC2(CCN(C(=O)c3ccc(OC(C)C)c(C)c3)CC2)O1` (stereo not drawn) [Compound 193] here?
A: < 2000 nM

Q: How did the IC50 turn out when `CC(C)Oc1ccc(C(=O)N2CCC3(CC2)CN(CC(F)(F)F)CC(c2ccccc2)O3)cc1CO` (stereo not drawn) [Compound 194] was run?
A: < 2000 nM

Q: With `Cc1cccc(C2CN(CC(F)F)CC3(CCN(C(=O)c4ccc(OC(C)C)c(F)c4)CC3)O2)n1` (stereo not drawn) [Compound 195] as the compound, how does the IC50 read?
A: < 2000 nM

Q: `Cc1cnc(C2CN(CC(F)(F)F)CC3(CCN(C(=O)c4ccc(OC(C)C)c(C)c4)CC3)O2)s1` (stereo not drawn) [Compound 196] was tested. Which IC50 did it give?
A: < 2000 nM

Q: For `COCC1CN(c2ncccn2)CC2(CCN(C(=O)c3ccc(C(O)C(C)C)cc3)CC2)O1` (stereo not drawn) [Compound 197], which IC50 is on record?
A: 2000 to 5000 nM

Q: For `COCC1CN(c2ncccn2)CC2(CCN(C(=O)c3ccc(S(=O)(=O)NC4CC4)cc3)CC2)O1` (stereo not drawn) [Compound 198], which IC50 is on record?
A: > 5000 nM

Q: `Cc1cc(C(=O)N2CCC3(CC2)CN(CC(F)(F)F)CC(c2ccccc2)O3)ccc1OCCO` (stereo not drawn) [Compound 199] was tested. Which IC50 did it give?
A: 2000 to 5000 nM

Q: Which IC50 does the source give for `Cc1cc(C(=O)N2CCC3(CC2)CN(CC(F)(F)F)CC(c2ccccc2)O3)ccc1S(=O)(=O)C(C)C` (stereo not drawn) [Compound 200] here?
A: < 2000 nM

Q: How did the IC50 turn out when `COCC1CN(C2CCCCCC2)CC2(CCN(C(=O)c3ccc(OC(C)C)c(C)c3)CC2)O1` (stereo not drawn) [Compound 201] was run?
A: < 2000 nM

Q: How did the IC50 turn out when `Cc1cc(C(=O)N2CCC3(CC2)CN(CC(F)F)CC(c2ccc(F)cc2)O3)ccc1S(C)(=O)=O` (stereo not drawn) [Compound 202] was run?
A: > 5000 nM

Q: `CCOc1cc(C(=O)N2CCC3(CC2)CN(CC)CC(c2ccccc2)O3)ccc1CO` (stereo not drawn) [Compound 203] was tested. Which IC50 did it give?
A: 2000 to 5000 nM

Q: How did the IC50 turn out when `COCC1CN(C2CCCCC2)CC2(CCN(C(=O)c3ccc(OC(C)C)c(C)c3)CC2)O1` (stereo not drawn) [Compound 204] was run?
A: < 2000 nM

Q: `CCCN1CC(COC)OC2(CCN(C(=O)c3ccc(OC(C)C)c(C)c3)CC2)C1` (stereo not drawn) [Compound 205] was tested. Which IC50 did it give?
A: < 2000 nM

Q: For `COCC1CN(CC2CCCCC2)CC2(CCN(C(=O)c3ccc(OC(C)C)c(C)c3)CC2)O1` (stereo not drawn) [Compound 206], which IC50 is on record?
A: < 2000 nM

Q: With `COCC1CN(c2ncccn2)CC2(CCN(C(=O)c3ccc(S(=O)(=O)C4CC4)cc3)CC2)O1` (stereo not drawn) [Compound 208] as the compound, how does the IC50 read?
A: > 5000 nM

Q: Which IC50 does the source give for `Cc1cc(C(=O)N2CCC3(CC2)CN(CC(F)F)CC(c2ncco2)O3)ccc1OC(C)C` (stereo not drawn) [Compound 209] here?
A: < 2000 nM

Q: For `COc1cc(C(=O)N2CCC3(CC2)CN(CC(F)F)CC(c2cc[nH]n2)O3)ccc1OC(C)C` (stereo not drawn) [Compound 210], which IC50 is on record?
A: > 5000 nM

Q: For `Cc1nc(C(=O)N2CCC3(CC2)CN(CC#N)CC(c2ccccc2)O3)ccc1OC(C)C` (stereo not drawn) [Compound 212], which IC50 is on record?
A: < 2000 nM

Q: With `CC(C)Oc1ccc(C(=O)N2CCC3(CC2)CN(CC(F)(F)F)CC(c2ccccc2)O3)cc1Cl` (stereo not drawn) [Compound 213] as the compound, how does the IC50 read?
A: < 2000 nM

Q: How did the IC50 turn out when `CCc1cnc(C2CN(CC(F)F)CC3(CCN(C(=O)c4ccc(OC(C)C)c(C)c4)CC3)O2)o1` (stereo not drawn) [Compound 214] was run?
A: 2000 to 5000 nM

Q: Which IC50 does the source give for `COCC1CN(CC(=O)OC)CC2(CCN(C(=O)c3ccc(OC(C)C)c(C)c3)CC2)O1` (stereo not drawn) [Compound 215] here?
A: 2000 to 5000 nM

Q: `COCC1CN(c2ncccn2)CC2(CCN(C(=O)c3ccc(OCC(C)(C)O)c(C)c3)CC2)O1` (stereo not drawn) [Compound 216] was tested. Which IC50 did it give?
A: 2000 to 5000 nM

Q: Which IC50 does the source give for `CC#CCN1CC(CC)OC2(CCN(C(=O)c3ccc(OCCC)c(C)c3)CC2)C1` (stereo not drawn) [Compound 217] here?
A: < 2000 nM

Q: For `CC#CCN1CC(COC)OC2(CCN(C(=O)c3ccc(OC(C)C)c(C)c3)CC2)C1` (stereo not drawn) [Compound 218], which IC50 is on record?
A: < 2000 nM

Q: Which IC50 does the source give for `COc1cc(C(=O)N2CCC3(CC2)CN(CC(F)F)CC(c2ccccc2)O3)ccc1OC(C)C` (stereo not drawn) [Compound 219] here?
A: < 2000 nM

Q: For `COCC1CN(C2CCC(F)(F)CC2)CC2(CCN(C(=O)c3ccc(OC(C)C)c(C)c3)CC2)O1` (stereo not drawn) [Compound 220], which IC50 is on record?
A: < 2000 nM

Q: `CC(C)Oc1ccc(C(=O)N2CCC3(CC2)CN(CC(F)F)CC(c2ccccn2)O3)cc1F` (stereo not drawn) [Compound 221] was tested. Which IC50 did it give?
A: < 2000 nM

Q: With `CC(C)Oc1ccc(C(=O)N2CCC3(CC2)CN(CC(F)F)CC(c2ccccn2)O3)cc1Cl` (stereo not drawn) [Compound 222] as the compound, how does the IC50 read?
A: < 2000 nM

Q: With `COCC1CN(c2cccc(C(F)(F)F)c2)CC2(CCN(C(=O)c3ccc(C4(O)CCC4)cc3)CC2)O1` (stereo not drawn) [Compound 223] as the compound, how does the IC50 read?
A: < 2000 nM

Q: Which IC50 does the source give for `COc1cc(C(=O)N2CCC3(CC2)CN(CC(F)F)CC(c2ccccc2)O3)ccc1C(C)(C)O` (stereo not drawn) [Compound 224] here?
A: < 2000 nM

Q: With `COCC1CN(c2cccc(C(F)(F)F)c2)CC2(CCN(C(=O)c3ccc(OCC(C)(C)O)c(C)c3)CC2)O1` (stereo not drawn) [Compound 225] as the compound, how does the IC50 read?
A: < 2000 nM

Q: `CC(C)Oc1ccc(C(=O)N2CCC3(CC2)CN(CC(F)F)CC(c2cc[nH]n2)O3)cc1F` (stereo not drawn) [Compound 226] was tested. Which IC50 did it give?
A: 2000 to 5000 nM

Q: `CCN1CC(c2ccccc2)OC2(CCN(C(=O)c3ccc(OC(C)C)c(F)c3)CC2)C1` (stereo not drawn) [Compound 227] was tested. Which IC50 did it give?
A: < 2000 nM

Q: How did the IC50 turn out when `COCC1CN(c2cccc(C#N)c2)CC2(CCN(C(=O)c3ccc(OC(C)C)c(C)c3)CC2)O1` (stereo not drawn) [Compound 228] was run?
A: < 2000 nM

Q: Which IC50 does the source give for `CCn1ccc(C2CN(CC(F)F)CC3(CCN(C(=O)c4ccc(OC(C)C)c(C)c4)CC3)O2)n1` (stereo not drawn) [Compound 229] here?
A: 2000 to 5000 nM

Q: For `Cc1cc(C(=O)N2CCC3(CC2)CN(CC(F)F)CC(c2ncc(C(C)(C)C)o2)O3)ccc1OC(C)C` (stereo not drawn) [Compound 230], which IC50 is on record?
A: < 2000 nM

Q: How did the IC50 turn out when `CC#CCN1CC(CC)OC2(CCN(C(=O)c3ccc(OC(C)C)c(C#N)c3)CC2)C1` (stereo not drawn) [Compound 231] was run?
A: > 5000 nM

Q: How did the IC50 turn out when `COCC1CN(C2CCC[C@@H](C)C2)CC2(CCN(C(=O)c3ccc(OC(C)C)c(C)c3)CC2)O1` (stereo partly drawn) [Compound 232] was run?
A: < 2000 nM
